According to patent US10556888B2, “Pyrazole compounds or salts thereof, preparation methods therefor, herbicidal compositions and use thereof” (QINGDAO KINGAGROOT CHEMICAL COMPOUNDS CO., LTD, priority 2015, dated 2020):

How the values were obtained:
Format in all cases: in vivo
Monochoria vaginalis = assay: Weed control effect evaluation in transplanted rice field; design: key: Level 10: completely dead; Level 9: above 90% growth inhibition rate; Level 8: above 80% growth inhibition rate; Level 7: above 70% growth inhibition rate; Level 6: above 60% growth inhibition rate; Level 5: above 50% growth inhibition rate; Level 4: above 30% growth inhibition rate; Level 3: above 20% growth inhibition rate; Level 2: above 10% growth inhibition rate; Level 1: above 1-10% growth inhibition rate; Level 0: no effect; conditions: transplanted rice field pot test, 14 days after treatment
Method: (§1) Rice field soil was loaded into a 1/1,000,000 ha pot. The seeds of Echinochloa, Scirpus juncoides, Bidens tripartite and Sagittaria trifolia were sowed and gently covered with soil, then left to stand still in greenhouse in the state of 0.5-1 cm of water storage. The tuber of Sagittaria trifolia was planted in the next day or 2 days later. It was kept at 3-4 cm of water storage thereafter. The weeds were treated by dripping the WP or SC water diluents prepared according to the common preparation method of the compounds of the present invention with pipette homogeneously to achieve specified effective amount when Echinochloa, Scirpus juncoides and Bidens tripartite reached 0.5 leaf stage and Sagittaria trifolia reached the time point of primary leaf stage.
(§2) The fertility condition of Echinochloa, Scirpus juncoides, Bidens tripartite and Sagittaria trifolia 14 days after the treatment of the compound of the invention and the fertility condition of rice 21 days after the treatment of the compound of the invention respectively with the naked eye.
(§3) The seeds of Echinochloa crus-galli, Scirpus juncoides and Monochoria vaginalis were collected from Heilongjing and Jiangsu Province of China.

Echinochloa crus-galli = assay: as above; design: key: Level 10: completely dead; Level 9: above 90% growth inhibition rate; Level 8: above 80% growth inhibition rate; Level 7: above 70% growth inhibition rate; Level 6: above 60% growth inhibition rate; Level 5: above 50% growth inhibition rate; Level 4: above 30% growth inhibition rate; Level 3: above 20% growth inhibition rate; Level 2: above 10% growth inhibition rate; Level 1: above 1-10% growth inhibition rate; Level 0: no effect; conditions: transplanted rice field pot test, 14 days after treatment
Method: as §1, §2, §3

Scirpus juncoides = assay: as above; design: key: Level 10: completely dead; Level 9: above 90% growth inhibition rate; Level 8: above 80% growth inhibition rate; Level 7: above 70% growth inhibition rate; Level 6: above 60% growth inhibition rate; Level 5: above 50% growth inhibition rate; Level 4: above 30% growth inhibition rate; Level 3: above 20% growth inhibition rate; Level 2: above 10% growth inhibition rate; Level 1: above 1-10% growth inhibition rate; Level 0: no effect; conditions: transplanted rice field pot test, 14 days after treatment
Method: as §1, §2, §3

Rice = assay: Transplanted rice safety evaluation; design: key: Level 10: completely dead; Level 9: above 90% growth inhibition rate; Level 8: above 80% growth inhibition rate; Level 7: above 70% growth inhibition rate; Level 6: above 60% growth inhibition rate; Level 5: above 50% growth inhibition rate; Level 4: above 30% growth inhibition rate; Level 3: above 20% growth inhibition rate; Level 2: above 10% growth inhibition rate; Level 1: above 1-10% growth inhibition rate; Level 0: no effect; conditions: transplanted 3 leaf stage japonica rice, 21 days after treatment
Method: In addition, the rice field soil that loaded into the 1/1,000,000 ha pot was leveled to keep water storage at 3-4 cm depth. The 3 leaf stage rice (japonica rice) was transplanted at 3 cm of transplanting depth the next day. The compound of the present invention was treated by the same way after 5 days of transplantation. The fertility condition of Echinochloa, Scirpus juncoides, Bidens tripartite and Sagittaria trifolia 14 days after the treatment of the compound of the invention and the fertility condition of rice 21 days after the treatment of the compound of the invention respectively with the naked eye.

[1] = test system: Monocotyledonous and dicotyledonous weed; assay: Post-emergence test experiment, weed control effect (Table 2); design: key to weed control effect, Setaria viridis (level) / weed control effect, Rorippa indica (level) / weed control effect, Abutilon theophrasti (level) / weed control effect, Echinochloa crus-galli (level) / weed control effect, Digitaria sanguinalis (level): Level 10: completely dead; Level 9: above 90% growth inhibition rate; Level 8: above 80% growth inhibition rate; Level 7: above 70% growth inhibition rate; Level 6: above 60% growth inhibition rate; Level 5: above 50% growth inhibition rate; Level 4: above 30% growth inhibition rate; Level 3: above 20% growth inhibition rate; Level 2: above 10% growth inhibition rate; Level 1: above 1-10% growth inhibition rate; Level 0: no effect; conditions: 3 weeks after spraying, greenhouse
In short: (§4)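 Weed and crop seeds (wheat, corn, rice, soybean, cotton, oilseed, millet, sorghum) grown in soil in greenhouse; sprayed at 2-3 leaf stage, 2-3 weeks after sowing, with compound in acetone/Tween 80/water. Effects assessed after 3 weeks further greenhouse culture.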

[2] = test system: main crop (wheat, corn, rice, soybean, cotton, oilseed, millet and sorghum); assay: Post-emergence test experiment, main crops (Table 2); design: key: Level 10: completely dead; Level 9: above 90% growth inhibition rate; Level 8: above 80% growth inhibition rate; Level 7: above 70% growth inhibition rate; Level 6: above 60% growth inhibition rate; Level 5: above 50% growth inhibition rate; Level 4: above 30% growth inhibition rate; Level 3: above 20% growth inhibition rate; Level 2: above 10% growth inhibition rate; Level 1: above 1-10% growth inhibition rate; Level 0: no effect; conditions: 3 weeks after spraying, greenhouse
In short: as §4

| Compound | Weed control effect, Monochoria vaginalis (activity level) (Monochoria vaginalis; application rate 60 g/ha) | Weed control effect, Echinochloa crus-galli (activity level) (Echinochloa crus-galli; application rate 60 g/ha) | Weed control effect, Scirpus juncoides (activity level) (Scirpus juncoides; application rate 60 g/ha) | Rice (safety, activity level) (Rice; application rate 60 g/ha) | weed control effect, Abutilon theophrasti (level) ([1]; 30 g/ha) | weed control effect, Bidens pilosa (level) ([1]; 30 g/ha) | weed control effect, Digitaria sanguinalis (level) ([1]; 30 g/ha) | weed control effect, Echinochloa crus-galli (level) ([1]; 30 g/ha) | weed control effect, Rorippa indica (level) ([1]; 30 g/ha) | weed control effect, Setaria viridis (level) ([1]; 30 g/ha) | effect on crop, corn (level) ([2]; 30 g/ha) | effect on crop, rice (level) ([2]; 30 g/ha) | effect on crop, wheat (level) ([2]; 30 g/ha) | also measured |
| --- | --- | --- | --- | --- | --- | --- | --- | --- | --- | --- | --- | --- | --- | --- |
| CCOCc1c(S(C)(=O)=O)ccc(C(=O)c2c(C3CC3)nn(C)c2OC(=O)c2cn(C)nc2C)c1Cl [Compound 46] | 9 (Level 9: above 90% growth inhibition rate) | 8 (Level 8: above 80% growth inhibition rate) | 9 (Level 9: above 90% growth inhibition rate) | 0 | 7 (Level 7: above 70% growth inhibition rate) | 7 (Level 7: above 70% growth inhibition rate) | 10 | 10 | 10 | 10 | 1 (Level 1: above 1-10% growth inhibition rate) | 3 (Level 3: above 20% growth inhibition rate) | 0 |  |
| Cc1ccn(Cc2c(S(C)(=O)=O)ccc(C(=O)c3c(C)nn(C)c3OC(=O)c3cn(C)nc3C)c2Cl)n1 [Compound 02] |  |  |  |  |  |  |  |  |  |  |  |  |  | Weed control effect, Monochoria vaginalis (activity level) (Monochoria vaginalis; application rate 500 g/ha): 9 (Level 9: above 90% growth inhibition rate); Weed control effect, Echinochloa crus-galli (activity level) (Echinochloa crus-galli; application rate 500 g/ha): 10; Weed control effect, Scirpus juncoides (activity level) (Scirpus juncoides; application rate 500 g/ha): 10; Rice (safety, activity level) (Rice; application rate 500 g/ha): 0; weed control effect, Abutilon theophrasti (level) ([1]; 120 g/ha): 8 (Level 8: above 80% growth inhibition rate); weed control effect, Bidens pilosa (level) ([1]; 120 g/ha): 9 (Level 9: above 90% growth inhibition rate); weed control effect, Digitaria sanguinalis (level) ([1]; 120 g/ha): 2 (Level 2: above 10% growth inhibition rate); weed control effect, Echinochloa crus-galli (level) ([1]; 120 g/ha): 10; weed control effect, Rorippa indica (level) ([1]; 120 g/ha): 10; weed control effect, Setaria viridis (level) ([1]; 120 g/ha): 6 (Level 6: above 60% growth inhibition rate); effect on crop, corn (level) ([2]; 120 g/ha): 0; effect on crop, rice (level) ([2]; 120 g/ha): 1 (Level 1: above 1-10% growth inhibition rate); effect on crop, wheat (level) ([2]; 120 g/ha): 0 |
| COCC(C)OCc1c(S(C)(=O)=O)ccc(C(=O)c2c(C)nn(C)c2OC(=O)c2cn(C)nc2C)c1Cl (stereo not shown) [Compound 36] | 10 | 9 (Level 9: above 90% growth inhibition rate) | 10 | 0 |  |  |  |  |  |  |  |  |  | weed control effect, Abutilon theophrasti (level) ([1]; 60 g/ha): 10; weed control effect, Bidens pilosa (level) ([1]; 60 g/ha): 8 (Level 8: above 80% growth inhibition rate); weed control effect, Digitaria sanguinalis (level) ([1]; 60 g/ha): 10; weed control effect, Echinochloa crus-galli (level) ([1]; 60 g/ha): 10; weed control effect, Rorippa indica (level) ([1]; 60 g/ha): 10; weed control effect, Setaria viridis (level) ([1]; 60 g/ha): 7 (Level 7: above 70% growth inhibition rate); effect on crop, corn (level) ([2]; 60 g/ha): 0; effect on crop, rice (level) ([2]; 60 g/ha): 1 (Level 1: above 1-10% growth inhibition rate); effect on crop, wheat (level) ([2]; 60 g/ha): 0 |
| COCc1c(S(C)(=O)=O)ccc(C(=O)c2c(C3CC3)nn(C)c2OC(=O)c2cn(C)nc2C)c1Cl [Compound 51] | 10 | 10 | 9 (Level 9: above 90% growth inhibition rate) | 0 | 7 (Level 7: above 70% growth inhibition rate) | 7 (Level 7: above 70% growth inhibition rate) | 10 | 10 | 10 | 10 | 4 (Level 4: above 30% growth inhibition rate) | 3 (Level 3: above 20% growth inhibition rate) | 0 |  |
